Results reported in patent US20250281473A1, “CDK Inhibitors And Their Use As Pharmaceuticals” (PRELUDE THERAPEUTICS INCORPORATED, priority 2024, published 2025).

How the values were obtained:
[1] = test system: U-2932 CDX; test: U-2932 (DLBCL) CDX, tumor growth; format: in vivo
Description: (§1) See FIG. 9 (Data represented as mean±SEM. N=8, *P<0.05, **P<0.001, ***P<0.001 by Mann-Whitney U test).

[2] = test system: TMD-8 subcutaneous xenograft; test: TMD-8 (DLBCL) cell line-derived subcutaneous xenograft, tumor growth; format: in vivo
Description: See FIG. 3 (Data represented as mean±SEM. N=8, ***P<0.001, ****P<0.0001 by Mann-Whitney U test). […]
as §1

[3] = test system: LY2264 (DLBCL) patient-derived xenografts (PDX); test: LY2264 (DLBCL) patient-derived xenograft, tumor growth; format: in vivo
Description: See FIG. 6 (Data represented as mean±SEM. N=8, *P<0.05, **P<0.001, ***P<0.001 by Mann-Whitney U test).

[4] = test system: SUDHL4 subcutaneous xenograft; test: SUDHL4 subcutaneous xenograft, tumor growth; format: in vivo; settings: Formula (I) 30 mg/kg intravenously QW, BID q2h
Description: (§2) See FIG. 3 (Data represented as mean±SEM. N=8, ***P<0.001, ****P<0.0001 by Mann-Whitney U test).

[5] = test system: Karpas-422 subcutaneous xenograft; test: Karpas-422 subcutaneous xenograft, tumor growth; format: in vivo; settings: Formula (I) 30 mg/kg intravenously QW, BID q2h
Description: as §2

[6] = test system: Mino CDX model of Ibrutinib resistant MCL; test: Mino CDX model of Ibrutinib resistant MCL, tumor growth; format: in vivo; settings: Formula (I) i.v. 15 mg/kg, QW BID q2h
Description: Anti-tumor activity remains similar to the parental Mino model. Ibrutinib-resistance was induced through repeat in vivo passage and treatment with Ibrutinib. See FIG. 15 (Data represented as mean±SEM. N=7, *P<0.05, ****P<0.0001 by Mann-Whitney U test).

[7] = test system: DLBCL (SUDHL4, OCI-Ly-10, and TMD-8) and CLL (HG-3, JVM-3, and MEC-1) cell lines; test: Caspase 3/7-Glo assay in DLBCL and CLL cell lines; format: cell-based; settings: 6 h treatment
[8] = test system: PBMCs derived from patients with untreated or relapsed/refractory (R/R) CLL; test: Caspase-Glo 3/7 activity assay in CLL patient PBMCs; format: cell-based; settings: 6 h treatment; ex vivo patient PBMCs
[9] = test system: Ibrutinib-sensitive and Ibrutinib-resistant MCL cell lines; test: CTG assay in MCL cell lines; format: cell-based; settings: in vitro

CC1(C)CCC(CN2CCN(c3ccc(C(=O)NS(=O)(=O)c4ccc(NCC5CCOCC5)c([N+](=O)[O-])c4)c(Oc4cnc5[nH]ccc5c4)c3)CC2)=C(c2ccc(Cl)cc2)C1 [Venetoclax, reference compound]
tumor growth inhibition ([1]; Venetoclax 50 mg/kg QD orally): 37%

C=CC(=O)N1CCC([C@@H]2CCNc3c(C(N)=O)c(-c4ccc(Oc5ccccc5)cc4)nn32)CC1 [Zanubrutinib, reference compound]
tumor growth inhibition ([2]; Example 2, FIG. 5, Zanubrutinib 5 mg/kg, BID orally): 44% | tumor growth inhibition ([3]; Zanubrutinib alone, 25 mg/kg QD orally): 64%

Cc1cnc(NC(=O)[C@H]2CCC[C@@H](NC(=O)CC#N)C2)cc1-c1cc(F)c2ncn(C(C)C)c2c1 [Formula (I)]
tumor growth inhibition ([2]; Example 1, FIG. 3, Formula (I) 7.5 mg/kg intravenously QW, BID q2h): 49% | tumor growth inhibition ([2]; Example 1, FIG. 3, Formula (I) 15 mg/kg intravenously QW, BID q2h): 62% | tumor growth inhibition ([2]; Example 1, FIG. 3, Formula (I) 30 mg/kg intravenously QW, BID q2h): 83% | tumor growth inhibition ([2]; Example 2, FIG. 5, Formula (I) monotherapy 7.5 mg/kg i.v., BID q2h QW): 46% | tumor growth inhibition ([2]; Example 3, FIG. 9, Formula (I) monotherapy 7.5 mg/kg i.v. QW BID q2h): 49% | tumor growth inhibition [4]: 125% | tumor growth inhibition [5]: 108% | tumor growth inhibition ([3]; Formula (I) alone, 30 mg/kg i.v. QW, BID q2h): 40% | tumor growth inhibition ([1]; Formula (I) monotherapy 7.5 mg/kg i.v. QW BID q2h): 37% | tumor growth inhibition (in words) [6]: significant tumor growth inhibition | induction of apoptosis (caspase 3/7) [7]: induction of apoptosis | induction of apoptosis (caspase 3/7) [8]: induction of apoptosis | activity in CTG assay (in words) [9]: shows activity
